Laboratory results as given in ChEMBL document CHEMBL5380792, “Discovery of CZS-241: A Potent, Selective, and Orally Available Polo-Like Kinase 4 Inhibitor for the Treatment of Chronic Myeloid Leukemia” (J Med Chem, 2023).

Columns and labels:
in vitro [1] = settings: human, plasma
in vitro [2] = settings: human, plasma; remark: listed apart in the source
in vitro [3] = settings: human, plasma; remark: listed apart in the source
in vitro [4] = settings: human, liver microsomes
in vitro [5] = settings: human, liver microsomes; remark: listed apart in the source
in vitro [6] = settings: human, plasma; remark: listed apart in the source
in vitro [7] = settings: human, liver microsomes; remark: listed apart in the source
in vitro [8] = settings: human, plasma; remark: listed apart in the source

With `COc1c(Nc2cc(C)[nH]n2)nc(Sc2ccc(S(=O)(=O)Cc3cccc([N+](=O)[O-])c3F)cc2F)nc1N1CCOCC1` the remaining at 0.5 h (in vitro [1]) was 95%, the remaining at 2 h (in vitro [2]) was 97.3% and the remaining at 10 min (in vitro [3]) was 101%. It also gave a remaining at 1 h (in vitro [4]) of 98.6%, a remaining at 1 h (in vitro [5]) of 1.7% and a remaining at 1 h (in vitro [6]) of 95.4%.
Compound `O=C(O)Cc1ccccc1Nc1c(Cl)cccc1Cl` [DICLOFENAC] has a half-life (in vitro [7]) of 3.2 min.
Compound `C[C@]12CC[C@H]3[C@@H](CCC4=CC(=O)CC[C@@]43C)[C@@H]1CC[C@@H]2O` [TESTOSTERONE] has a half-life (in vitro [7]) of 11.4 min.
For `CC(C)[N+](C)(CCOC(=O)C1c2ccccc2Oc2ccccc21)C(C)C.[Br-]` [PROPANTHELINE BROMIDE], the half-life (in vitro [8]) was 19.8 min.
